The values below come from patent publication EP1056700B1, “MEDICINAL USES OF PHENYLALKANOLS AND DERIVATES” (ZingoTX Pty Ltd, priority 1997, dated 1999).

The target of experiment [1] is T1, SR Ca^2+-ATPase (Canis lupus familiaris, UniProt O46674).
T1 construct: Effect of gingerols and their derivatives on the Ca^2+-ATPase activity of dog cardiac SR; from tissue; host or cells: dog heart (cardiac sarcoplasmic reticulum)
Nature of the experiment: Sarcoplasmic reticulum Ca^2+-ATPase assay. The experiment is classed as biochemical, dog. The note with it: for SR Ca^2+-ATPase Activity: 0 µM = 100, dog cardiac SR; for IC50: read-out: SR Ca^2+-ATPase IC50 = conc. for 50% inhibition. How it is done:
A portion at each concentration (54 µl) was aliquoted into 4 designated wells of the microplate (two of four wells were controls). Each well was mixed with ATP solution (20 mM, 6 µl), except the controls, using an 8 channel pipette. The controls were assayed in the absence of ATP or calcium.
The plate was incubated with the lid on, for 30 min at 37°C, colour reagent (160 µl) was then added and mixed with citrate solution (34%, 30 µl). The plate was developed at room temperature for 30 min then absorbance at 655 nm was read from the microplate reader. The Ca^2+-ATPase activity was quantitated, from a Pi standard curve, as concentration of liberated inorganic phosphate.
Stock solutions (10 mM) of test substance were prepared in DMSO, then series dilutions were made either in DMSO or in 1M HEPES to produce the dose-response concentrations. The maximum concentration of DMSO in the final assay solution was 2.5%.
Each concentration of test substance was assayed in duplicate in the presence and absence of ATP or calcium. Phosphate standards are run on each plate as follows:
Effect of gingerols and their derivatives on the Ca^2+-ATPase activity of dog cardiac SR.

Experiment [2] concerns guinea pig atria. Put plainly: Organ bath assay on isolated guinea pig atria (rate and force of contraction). The note with it: guinea pig atria; for HEART RATE / FORCE OF CONTRACT^n: result in words. The procedure, abridged:
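Atria from 3-4-week-old male guinea pigs mounted in Krebs-Henseleit solution gassed with carbogen, under 1 g tension, stabilised 20 min. Rate and force of contraction recorded. Compounds in DMSO tested up to 50 µM maximum, final DMSO 2.5 %.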

For experiment [3], the system named is DRG neuronal cells. Nature of the experiment: Peak [Ca^2+]i transients in cultured dorsal root ganglion neurons (Fura-2). In kind it is cell-based, rat. To be noted: 10 µM applied for 1 min, 2 mM Ca^2+. As to the method: DRG from neonatal (3-5 days old) rat or adult Sprague-Dawley rats were incubated in Hanks CMF saline with 0.05% collagenase and 0.25% trypsin for 25 min at 37° C. Individual cells were obtained by trituration with fire polished Pasteur pipettes of diminishing diameters. Neurones were isolated from the cell suspension in 30% Percoll and then plated on collagen coated coverslips or in 24-well plates, then cultured in neurobasal medium with B27 supplement, 50 ng/ml 2.5 S nerve growth factor, 2 mM 1-glutamine and 100 U/ml penicillin/streptomycin. Cultures were maintained at 37° C with 5% CO2. 30% Percoll increases the percentage of capsaicin-sensitive DRG neurones up to 70%. For peak [Ca^2+]i transients measurements, cells on coverslips were incubated with 5 µM Fura-2 AM for 30 min at 37° C. The coverslips were then mounted on a chamber attached to a fast sample application perfusion system which allows changing solutions in the second range. Recordings were made on the stage of a Nikon Diaphot inverted microscope fitted with a Nikon 40 x Fluo (NA 0.85) DL Ph3 or 40 x Fluo (NA 1.3) oil objective. [Ca^2+]i was calculated from dual excitation wavelength (340/380 nm) fluorescence measurements following an intracellular calibration procedure by the Grynkiewicz equation, using MCID M2/M4 v.3.0 (Imaging Res. Inc.) software. Cells were continuously perfused with a solution consisting of 140 mM NaCl, 2 mM CaCl2, 5 mM KCl, 20 mM HEPES, 10 mM glucose, pH 7.4. To study KCl evoked depolarisation, 50 mM NaCl was replaced by equimolar KCl. Cytoplasmic localisation of Fura-2 was tested with the Mn^2+ quenching technique (Dedov and Roufogalis, 1998). All experiments were performed at room temperature (20-23°C).
Typical changes in [Ca^2+]i upon depolarisation were evoked by 50 mM KCl and by application of 1 µM capsaicin; both were applied for 30 sec. Capsaicin-evoked peak [Ca^2+]i transients are characterised by a fast rise and long-steady state [Ca^2+]i clearance from the cytoplasm. In capsaicin-sensitive cells the half-time of cytoplasmic Ca^2+ clearance was proportional to the amplitudes of peak [Ca^2+]i transients.
To examine the effect of gingerol derivatives, one or several compounds in succession at a concentration of 10 µM were applied for 1 min to the DRG neuronal cells followed by washing out for 4 min with physiological solution. To the capsaicin-sensitive cells, 10 µM capsaicin and 50 mM KCl were applied, respectively, to confirm the viability of the cells. In addition, morphological appearances of the cells were also examined at the end of experiment. […]

Experiment [4] relates to rat mesenteric artery. Put plainly: Vasodilation on rat mesenteric small arteries. The note with it: for EC50: Rattus norvegicus, relaxation of small arteries (200-300 µm) precontracted with endothelin; for relaxation of rat mesenteric artery: result in words. An excerpt: Small arteries (200-300 µm in diameter) isolated from rat mesentery were precontracted with endothelin prior to addition of the test substances and tested for relaxation.

The subject of experiment [5] is Platelet rich plasma. Nature of the experiment: Platelet aggregation: [^3H]-serotonin release from platelet rich plasma, arachidonic acid initiated. To be noted: Homo sapiens, activation by EC50 concentration of arachidonic acid. The experiment is classed as cell-based. As to the method: Blood was collected from healthy volunteers who had taken no medication in the previous two weeks. The anticoagulant used was 3.8 % trisodium citrate. Platelet rich plasma was prepared and incubated with [^3H]-serotonin. This was followed by addition of gingerol analogues. Platelet activation was initiated using the EC50 concentration for arachidonic acid. The percentage of [^3H]-serotonin release was measured using a liquid scintillation counter. Then, dose-response curves were established and IC50 values were obtained.

T1 sequence (O46674 whole entry): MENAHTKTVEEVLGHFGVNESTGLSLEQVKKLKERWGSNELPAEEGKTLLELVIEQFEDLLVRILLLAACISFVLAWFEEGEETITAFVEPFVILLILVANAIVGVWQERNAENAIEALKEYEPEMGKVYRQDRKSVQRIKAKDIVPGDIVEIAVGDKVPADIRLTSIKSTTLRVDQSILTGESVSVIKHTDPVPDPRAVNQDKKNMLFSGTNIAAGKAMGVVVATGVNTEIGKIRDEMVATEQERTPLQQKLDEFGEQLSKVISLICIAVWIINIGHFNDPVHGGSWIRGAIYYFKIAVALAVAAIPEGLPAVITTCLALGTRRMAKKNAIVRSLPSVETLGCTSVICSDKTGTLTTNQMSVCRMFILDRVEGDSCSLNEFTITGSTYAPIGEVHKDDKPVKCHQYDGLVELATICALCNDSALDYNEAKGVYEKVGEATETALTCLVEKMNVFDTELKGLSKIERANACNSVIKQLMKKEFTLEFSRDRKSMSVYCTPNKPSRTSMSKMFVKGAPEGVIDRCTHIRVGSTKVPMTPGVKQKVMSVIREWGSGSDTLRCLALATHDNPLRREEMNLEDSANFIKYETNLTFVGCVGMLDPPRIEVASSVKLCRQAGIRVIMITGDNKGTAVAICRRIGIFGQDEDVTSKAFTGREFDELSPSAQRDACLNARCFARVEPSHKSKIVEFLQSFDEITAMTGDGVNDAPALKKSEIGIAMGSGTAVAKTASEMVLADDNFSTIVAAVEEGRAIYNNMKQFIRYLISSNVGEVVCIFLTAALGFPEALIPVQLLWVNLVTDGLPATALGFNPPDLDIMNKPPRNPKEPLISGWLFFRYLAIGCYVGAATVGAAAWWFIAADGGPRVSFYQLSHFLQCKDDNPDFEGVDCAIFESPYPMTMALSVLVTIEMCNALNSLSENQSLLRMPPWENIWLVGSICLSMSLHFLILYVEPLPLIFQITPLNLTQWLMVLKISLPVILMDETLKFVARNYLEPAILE

In general, IC50 refers to the midpoint of a concentration-inhibition curve. As to `CCCCCCCC(O)CCCCc1ccc(O)c(OC)c1` (stereo not shown) [1-(4-hydroxy-3-methoxyphenyl)dodecan-5-ol], the “SR Ca^2+-ATPase Activity” value in experiment [1] (5 µM) is 113; in experiment [1] (10 µM), 136; in experiment [1] (25 µM), 158; in experiment [1] (50 µM), 126; in experiment [1] (100 µM), 87; in experiment [1] (200 µM), 18. Besides, in experiment [1] (@ 25 µM), the “SR Ca^2+-ATPase ↑ increase or stimulation” value is “↑57% @ 25”. The IC50 in experiment [1] was around 25 µM. Moreover, the “FORCE OF CONTRACT^n ↑ increase” value in experiment [2] (@ 30 (µM)) was “↑79% @ 30”. Also, in experiment [2], the “HEART RATE” value is listed as “↑weakly”. Also, the “Number of capsaicin-sensitive cells responding” value (“Number” for short) in experiment [3] was 0 out of 5. For the same compound, the “Peak [Ca^2+]i (Average ±SD)” value in experiment [3] was determined as 0 nM.
The term EC50 denotes the concentration needed to bring the measured effect to its halfway point. Lower therefore signals higher potency in that assay. Regarding `CCCCCCCC(=O)CC(O)CCc1ccc(O)c(OC)c1` (stereo not shown) [3-hydroxy-1-(4-hydroxy-3-methoxyphenyl)dodecan-5-one], the IC50 in experiment [1] is above 100 µM. For the same compound, the “FORCE OF CONTRACT^n ↑ increase” value in experiment [2] (@ 5 (µM)) is “↑270% @ 5”. In experiment [2] (@ 10 (µM)), the “FORCE OF CONTRACT^n ↑ increase” value was “↑130% @ 10” and the “HEART RATE ↑ increase” value is listed as “↑30% @ 10”. In experiment [4], the EC50 was 0.04 µM and the “relaxation of rat mesenteric artery” value was “showed potency”. In experiment [3], the “Number” value is recorded as 5 and the “Peak [Ca^2+]i (Average ±SD)” value is recorded as 167 ± 105 nM.
For `CCCCCCCC(O)CC(=O)CCc1ccc2c(c1)OCO2` (stereo not shown) [5-hydroxy-1-(3,4-methylenedioxyphenyl)dodecan-3-one], in experiment [4], the midpoint of the response, the EC50, lay at 0.69 µM and the “relaxation of rat mesenteric artery” value is listed as “showed potency”. For the same compound, in experiment [3], the “Number” value came to 2 and the “Peak [Ca^2+]i (Average ±SD)” value was determined as 225 ± 78 nM.
For the compound `CCCCCC(O)CC(=O)CCc1ccc(O)c(OC)c1` (stereo not shown) [[6]-gingerol, 5-hydroxy-1-(4-hydroxy-3-methoxyphenyl)decan-3-one, reference compound], the “SR Ca^2+-ATPase Activity” value in experiment [1] (1 µM) is on record as 121; in experiment [1] (5 µM) it was 120; in experiment [1] (10 µM) it was 117; in experiment [1] (25 µM), 137; in experiment [1] (50 µM) it was 160. Moreover, the “SR Ca^2+-ATPase ↑ increase or stimulation” value in experiment [1] (@ 50 µM) is listed as “↑60% @ 50”. Besides, the IC50 is above 100 µM in experiment [1] and 73.8 ± 6.6 µM in experiment [5]. In addition, in experiment [2] (@ 50 (µM)), the “FORCE OF CONTRACT^n ↑ increase” value was “↑86% @ 50”. The “HEART RATE ↑ increase” value in experiment [2] (@ 50 (µM)) is listed as “↑10% @ 50”.
For orientation: inhibition means the drop in the measured response relative to a control, in per cent. With `CCCCCCCC(O)CC(=O)C=Cc1ccc(O)c(OC)c1` (stereo not shown) [[8]-dehydrogingerol, 5-hydroxy-1-(4-hydroxy-3-methoxyphenyl)dodecan-1-ene-3-one, reference compound], the “SR Ca^2+-ATPase Activity” value in experiment [1] (1 µM) is on record as 93; in experiment [1] (5 µM), 88; in experiment [1] (10 µM), 92; in experiment [1] (25 µM), 95; in experiment [1] (50 µM) it was 65. Moreover, the inhibition at 50 µM in experiment [1] (@ 50 µM, read-out: SR Ca^2+-ATPase ↓ decrease or inhibition) is 35%. The half-inhibitory concentration (IC50) in experiment [1] was around 50 µM. The “FORCE OF CONTRACT^n ↑ increase” value in experiment [2] (@ 25 (µM)) was “↑80% @ 25”. Moreover, in experiment [2] (@ 25 (µM)), the “HEART RATE ↑ increase” value is “↑17% @ 25”. The “time for tension to reach maximum after addition of a dose” value in experiment [2] is recorded as “a few mins”.
On to `CCCCCCCC(O)CC(=O)CCc1ccc(O)cc1` (stereo not shown) [[8]-demethoxygingerol, 5-hydroxy-1-(4-hydroxyphenyl)dodecan-3-one], for which the “SR Ca^2+-ATPase ↑ increase or stimulation” value in experiment [1] (@ 50 µM) is reported as “↑60% @ 50”. Also, the IC50 in experiment [1] was above 100 µM. Also, in experiment [2], the “FORCE OF CONTRACT^n” value was “inactive” and the “HEART RATE” value is “inactive”. In addition, in experiment [3], the “Number” value is recorded as 2 and the “Peak [Ca^2+]i (Average ±SD)” value is 243 ± 71 nM.
As to `CCCCCCCC(O)CC(O)CCc1ccc(O)c(OC)c1` (stereo not shown) [[8]-gingerdiol, 1-(4-hydroxy-3-methoxyphenyl)dodecane-3,5-diol, reference compound], in experiment [1] (@ 50 µM), the “SR Ca^2+-ATPase ↑ increase or stimulation” value is recorded as “↑54% @ 50”. For the same compound, the IC50 in experiment [1] is above 100 µM. In experiment [2], the “FORCE OF CONTRACT^n” value was “inactive” and the “HEART RATE” value was “inactive”. The half-maximal inhibitory concentration (IC50) in experiment [5] came out at 82.6 ± 9 µM. Also, in experiment [3], the “Number” value amounted to 2 and the “Peak [Ca^2+]i (Average ±SD)” value was determined as 246 ± 35 nM.
For the compound `CCCCCCCC(O)CC(=O)CCc1ccc(O)c(OC)c1` (stereo not shown) [[8]-gingerol, 5-hydroxy-1-(4-hydroxy-3-methoxyphenyl)dodecan-3-one, reference compound], the “SR Ca^2+-ATPase Activity” value in experiment [1] (1 µM) worked out at 139; in experiment [1] (5 µM) it was 158; in experiment [1] (10 µM), 165; in experiment [1] (25 µM), 200; in experiment [1] (50 µM), 139. Moreover, the “SR Ca^2+-ATPase ↑ increase or stimulation” value in experiment [1] (@ 25 µM) was “↑100% @ 25”. The IC50 in experiment [1] is around 100 µM; in experiment [5], 70.4 ± 3.8 µM. In addition, the “FORCE OF CONTRACT^n ↑ increase” value in experiment [2] (@ 3 (µM)) is given as “↑160% @ 3”. The “HEART RATE ↑ increase” value in experiment [2] (@ 3 (µM)) is listed as “↑31% @ 3”. For the same compound, the “time to increased cardiac contractility after addition of the drug” value in experiment [2] was determined as 15 s. In experiment [3], the “Number” value came to 7. Besides, the “Peak [Ca^2+]i (Average ±SD)” value in experiment [3] came to 279 ± 111 nM.
Regarding `CCCCCCCC(O)CC(=O)CCc1ccc(OC)c(O)c1` (stereo not shown) [[8]-isogingerol, 5-hydroxy-1-(3-hydroxy-4-methoxyphenyl)dodecan-3-one, reference compound], the “SR Ca^2+-ATPase ↑ increase or stimulation” value in experiment [1] (@ 50 µM) is listed as “↑64% @ 50”. Also, the IC50 in experiment [1] was above 100 µM. In experiment [2], the “FORCE OF CONTRACT^n” value is “inactive” and the “HEART RATE” value is “inactive”. For the same compound, in experiment [3], the “Number” value was 2 and the “Peak [Ca^2+]i (Average ±SD)” value is listed as 281 ± 42 nM.
`CCCCCCCC(O)CC(=O)CCc1cccc(OC)c1O` (stereo not shown) [[8]-orthogingerol, 5-hydroxy-1-(2-hydroxy-3-methoxyphenyl)dodecan-3-one]: in experiment [1] (@ 100 µM), the “SR Ca^2+-ATPase ↑ increase or stimulation” value was “↑40% @ 100”. Moreover, the IC50 in experiment [1] is above 100 µM. In addition, in experiment [2], the “FORCE OF CONTRACT^n” value is “inactive” and the “HEART RATE” value was “inactive”. Also, in experiment [3], the “Number” value was 2 and the “Peak [Ca^2+]i (Average ±SD)” value was 245 ± 64 nM.
